Reference: article PMC5590943, “Pharmacological characterisation of S 47445, a novel positive allosteric modulator of AMPA receptors” (PLoS ONE, 2017)

Tests used:
Rat AMPA receptors = experiment: AMPA-evoked currents, Xenopus laevis oocytes injected with rat cortex poly(A+) mRNA (two-electrode voltage clamp); assay type: cell-based; conditions: for Emax (fold increase): maximal potentiation, mean ± SEM; for EC2X: concentration giving a two-fold increase in current amplitude; for EC2X / EC50: geometric mean; for EC50: potentiation of 10 μM AMPA-evoked current
Protocol: (§1) Compounds were tested by bath application.

Human AMPA receptors = experiment: AMPA-evoked currents, Xenopus laevis oocytes injected with human hippocampal poly(A+) mRNA; assay type: cell-based; conditions: for Emax (fold increase): maximal potentiation, mean ± SEM; for EC2X: concentration giving a two-fold increase in current amplitude; for EC2X / EC50: geometric mean; for EC50: potentiation of 10 μM AMPA-evoked current
Protocol: as §1

[1] = target: T1, GluA1flop/GluA2flip AMPA receptors (Homo sapiens, UniProt P42261+P42262, Q607R); experiment: 10 μM glutamate-evoked currents in Xenopus laevis oocytes expressing GluA1flop/GluA2flip (repetitive pulses, GYKI52466); assay type: cell-based; conditions: GYKI52466 10 to 1000 μM; 10 μM glutamate
T1 construct: host or cells: Xenopus laevis oocytes
T1 sequence (P42261 19-906): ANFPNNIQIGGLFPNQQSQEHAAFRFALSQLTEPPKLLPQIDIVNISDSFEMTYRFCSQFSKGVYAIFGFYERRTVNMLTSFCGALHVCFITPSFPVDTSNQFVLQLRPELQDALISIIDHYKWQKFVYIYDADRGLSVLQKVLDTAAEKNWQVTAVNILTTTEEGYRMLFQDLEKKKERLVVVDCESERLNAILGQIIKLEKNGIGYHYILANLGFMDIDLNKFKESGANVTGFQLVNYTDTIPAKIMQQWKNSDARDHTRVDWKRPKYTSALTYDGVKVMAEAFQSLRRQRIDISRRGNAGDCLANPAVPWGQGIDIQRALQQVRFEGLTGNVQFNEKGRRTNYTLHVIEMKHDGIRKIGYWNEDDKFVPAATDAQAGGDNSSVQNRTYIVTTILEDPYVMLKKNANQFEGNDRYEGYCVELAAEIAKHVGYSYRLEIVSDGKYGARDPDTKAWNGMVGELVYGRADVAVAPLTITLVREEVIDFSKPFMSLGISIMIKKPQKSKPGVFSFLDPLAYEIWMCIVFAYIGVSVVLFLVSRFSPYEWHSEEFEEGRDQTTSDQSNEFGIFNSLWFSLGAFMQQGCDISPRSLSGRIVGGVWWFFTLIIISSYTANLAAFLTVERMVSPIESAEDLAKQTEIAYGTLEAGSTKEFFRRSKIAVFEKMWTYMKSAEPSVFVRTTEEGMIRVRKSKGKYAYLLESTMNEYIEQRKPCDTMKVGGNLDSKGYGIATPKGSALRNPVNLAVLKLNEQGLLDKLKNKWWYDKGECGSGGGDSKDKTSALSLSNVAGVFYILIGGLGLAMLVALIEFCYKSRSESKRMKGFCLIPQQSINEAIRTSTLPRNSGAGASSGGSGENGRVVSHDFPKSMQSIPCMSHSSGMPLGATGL
T1 sequence (P42262 22-883 isoform P42262-2 Q607R limits assumed): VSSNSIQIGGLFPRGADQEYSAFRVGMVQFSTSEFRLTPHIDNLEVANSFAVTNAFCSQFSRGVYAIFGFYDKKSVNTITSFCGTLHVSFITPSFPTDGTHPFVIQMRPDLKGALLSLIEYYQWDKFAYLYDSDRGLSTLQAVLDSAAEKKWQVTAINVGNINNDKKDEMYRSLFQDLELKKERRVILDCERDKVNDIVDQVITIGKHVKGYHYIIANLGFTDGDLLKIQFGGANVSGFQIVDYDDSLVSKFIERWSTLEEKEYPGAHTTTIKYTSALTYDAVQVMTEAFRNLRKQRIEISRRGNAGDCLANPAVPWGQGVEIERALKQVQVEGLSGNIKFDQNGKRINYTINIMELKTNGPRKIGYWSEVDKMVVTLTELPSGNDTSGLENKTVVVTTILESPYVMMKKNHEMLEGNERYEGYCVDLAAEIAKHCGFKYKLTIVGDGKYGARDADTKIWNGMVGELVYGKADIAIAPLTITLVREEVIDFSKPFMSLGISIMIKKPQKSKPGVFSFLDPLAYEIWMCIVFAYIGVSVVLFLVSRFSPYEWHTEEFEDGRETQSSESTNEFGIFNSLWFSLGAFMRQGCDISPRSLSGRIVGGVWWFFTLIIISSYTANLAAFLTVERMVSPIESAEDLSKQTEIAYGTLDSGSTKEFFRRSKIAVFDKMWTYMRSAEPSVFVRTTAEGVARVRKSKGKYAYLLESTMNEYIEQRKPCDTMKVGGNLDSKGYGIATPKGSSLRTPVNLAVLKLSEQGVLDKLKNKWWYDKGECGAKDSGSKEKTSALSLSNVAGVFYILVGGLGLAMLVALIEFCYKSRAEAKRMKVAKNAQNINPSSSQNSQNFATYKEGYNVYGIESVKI
Protocol: as §1
To test the inhibition, the selective AMPA receptor antagonist GYKI52446 was used from 10 to 1000 μM on the potentiation caused by S 47445 (1 μM).
EC50 were determined either using Matlab (Mathworks inc., Natick, USA) or SAS v9.2 (SAS Institute inc., Cary, USA) softwares. To have a comparative value between the tested drugs when EC50 could not be determined (absence of plateau at high concentrations), the EC2X was determined. EC2X corresponds to the concentrations of the drug responsible for a two-fold increase in the amplitude of the current.

[2] = system: isolated prefrontal cortex pyramidal neurons; design: method as in PMID 9221774, PMID 11408529; conditions: patch-clamp; cited from earlier work
[3] = system: rat primary cortical cell cultures; experiment: LDH release toxicity assay on rat primary cortical cell cultures; conditions: MK801 1 μM; data not shown
GluA3flop receptors = system: GluA3flop receptors; design: method as in PMID 9221774, PMID 11408529; conditions: Xenopus oocytes; cited from earlier work

O=C(c1ccc2nccnc2c1)N1CCCCC1 [CX516]
Emax (fold increase) (Rat AMPA receptors): 1.72 ± 0.1 fold increase
Emax (fold increase) (Human AMPA receptors): 3.13 fold increase

O=C1c2cc3c(cc2OC2CCCN12)OCCO3 (centres unmarked) [CX614]
EC2X (Rat AMPA receptors): 1.03 µM
Emax (fold increase) (Rat AMPA receptors): 30.32 ± 5.67 fold increase
EC50 (Rat AMPA receptors): 17.3 µM
EC2X (Human AMPA receptors): 0.88 µM
Emax (fold increase) (Human AMPA receptors): 23.43 ± 2.32 fold increase
EC50 (Human AMPA receptors): 11.4 µM

NS(=O)(=O)c1cc2c(cc1Cl)NC(C1CC3C=CC1C3)NS2(=O)=O (centres unmarked) [Cyclothiazide]
EC2X (Rat AMPA receptors): 1.68 µM
Emax (fold increase) (Rat AMPA receptors): 8.86 ± 0.79 fold increase
EC50 (Rat AMPA receptors): 8.83 µM
EC2X (Human AMPA receptors): 1.54 µM
Emax (fold increase) (Human AMPA receptors): 9.40 ± 2.61 fold increase
EC50 (Human AMPA receptors): 9.33 µM

CC1=NN=C(c2ccc(N)cc2)c2cc3c(cc2C1)OCO3.Cl.Cl [GYKI52466, 4-(8-Methyl-9H-1,3-dioxolo[4,5-h][2,3]benzodiazepin-5-yl)-benzenamine dihydrochloride, reference compound]
Effect on the potentiation caused by S 47445 (1 μM) [1]: concentration-dependently reversed

CC(CNS(=O)(=O)C(C)C)c1ccc(-c2ccsc2)cc1 (centres unmarked) [LY392098]
Increase of agonist potency [2]: approximately 7 fold

CC(CNS(=O)(=O)C(C)C)c1ccc(-c2ccc(C#N)cc2)cc1 (centres unmarked) [LY404187]
EC2X (Rat AMPA receptors): 0.32 µM
Emax (fold increase) (Rat AMPA receptors): 16.40 ± 2.22 fold increase
EC50 (Rat AMPA receptors): 3.01 µM
EC2X (Human AMPA receptors): 0.37 µM
Emax (fold increase) (Human AMPA receptors): 29.67 ± 2.67 fold increase
EC50 (Human AMPA receptors): 4.64 µM

CC(C)S(=O)(=O)NC[C@H](C)c1ccc(-c2ccc(CCNS(C)(=O)=O)cc2)cc1 [LY451395]
EC2X (Rat AMPA receptors): 0.04 µM
Emax (fold increase) (Rat AMPA receptors): 14.03± 0.70 fold increase
EC50 (Rat AMPA receptors): 0.37 µM

C[C@]12N[C@H](Cc3ccccc31)c1ccccc12 [MK801, reference compound]
Effect on 100 μM glutamate-mediated toxicity [3]: completely reversed

NC(=O)COc1c(F)cc(SCCNS(=O)(=O)c2ccccc2)cc1F [PEPA, 4-[2-(Phenylsulfonylamino)ethylthio]-2,6-Difluoro-Phenoxyacetamide]
Increase of agonist potency (GluA3flop receptors): approximately 7 fold

O=S1(=O)N[C@H]2CCCN2c2ccccc21 [S 18986]
EC2X (Rat AMPA receptors): 23.77 µM
Emax (fold increase) (Rat AMPA receptors): 15.37 ± 2.21 fold increase
EC50 (Rat AMPA receptors): 125 µM
EC2X (Human AMPA receptors): 16.88 µM
Emax (fold increase) (Human AMPA receptors): 14.51 ± 1.53 fold increase
